Data from ChEMBL document CHEMBL3351659, “Amine-linked diquercitols as new α-glucosidase inhibitors” (Bioorg Med Chem Lett, 2014).

Legend:
[1] = Inhibition of alpha-glucosidase (unknown origin); parameters: species or system Homo sapiens
[2] = Inhibition of Baker's yeast alpha-glucosidase pre-incubated for 10 mins before para-nitrophenyl-alpha-D-glucopyranoside substrate addition; parameters: species or system Saccharomyces cerevisiae
[3] = target: Sucrase-isomaltase, intestinal (Rattus norvegicus, UniProt P23739); assay: Inhibition of rat intestinal sucrase using sucrose substrate incubated for 10 mins
Chain of Sucrase-isomaltase, intestinal (P23739 1-1013 limits assumed): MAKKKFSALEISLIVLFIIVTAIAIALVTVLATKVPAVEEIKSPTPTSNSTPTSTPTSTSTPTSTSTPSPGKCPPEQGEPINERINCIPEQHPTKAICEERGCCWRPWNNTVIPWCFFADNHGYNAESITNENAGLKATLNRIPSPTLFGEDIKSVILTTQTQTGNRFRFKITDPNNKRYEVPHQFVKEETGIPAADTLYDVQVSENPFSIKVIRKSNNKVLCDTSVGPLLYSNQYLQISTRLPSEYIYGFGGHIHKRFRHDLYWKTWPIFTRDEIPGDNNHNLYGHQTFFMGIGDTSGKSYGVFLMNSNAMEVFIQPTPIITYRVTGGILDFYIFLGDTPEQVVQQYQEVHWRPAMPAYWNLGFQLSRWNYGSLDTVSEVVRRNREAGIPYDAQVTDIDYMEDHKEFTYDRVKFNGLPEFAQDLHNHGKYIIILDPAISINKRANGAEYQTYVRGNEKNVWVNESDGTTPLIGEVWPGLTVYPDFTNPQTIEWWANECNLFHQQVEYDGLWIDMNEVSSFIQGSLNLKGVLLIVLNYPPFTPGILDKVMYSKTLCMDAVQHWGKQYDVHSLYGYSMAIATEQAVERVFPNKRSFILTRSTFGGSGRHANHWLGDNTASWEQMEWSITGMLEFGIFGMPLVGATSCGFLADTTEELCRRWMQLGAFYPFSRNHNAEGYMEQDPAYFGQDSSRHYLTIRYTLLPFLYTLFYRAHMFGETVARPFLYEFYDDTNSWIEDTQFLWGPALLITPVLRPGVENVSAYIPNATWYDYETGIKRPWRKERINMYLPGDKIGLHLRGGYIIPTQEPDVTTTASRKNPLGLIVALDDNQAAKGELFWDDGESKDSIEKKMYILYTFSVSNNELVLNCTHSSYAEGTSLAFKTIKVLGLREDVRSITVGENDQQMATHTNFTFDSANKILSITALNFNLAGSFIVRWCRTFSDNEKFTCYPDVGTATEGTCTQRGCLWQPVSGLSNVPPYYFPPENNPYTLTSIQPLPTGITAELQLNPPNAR
Chain of Sucrase-isomaltase, intestinal (P23739 1014-1841 limits assumed): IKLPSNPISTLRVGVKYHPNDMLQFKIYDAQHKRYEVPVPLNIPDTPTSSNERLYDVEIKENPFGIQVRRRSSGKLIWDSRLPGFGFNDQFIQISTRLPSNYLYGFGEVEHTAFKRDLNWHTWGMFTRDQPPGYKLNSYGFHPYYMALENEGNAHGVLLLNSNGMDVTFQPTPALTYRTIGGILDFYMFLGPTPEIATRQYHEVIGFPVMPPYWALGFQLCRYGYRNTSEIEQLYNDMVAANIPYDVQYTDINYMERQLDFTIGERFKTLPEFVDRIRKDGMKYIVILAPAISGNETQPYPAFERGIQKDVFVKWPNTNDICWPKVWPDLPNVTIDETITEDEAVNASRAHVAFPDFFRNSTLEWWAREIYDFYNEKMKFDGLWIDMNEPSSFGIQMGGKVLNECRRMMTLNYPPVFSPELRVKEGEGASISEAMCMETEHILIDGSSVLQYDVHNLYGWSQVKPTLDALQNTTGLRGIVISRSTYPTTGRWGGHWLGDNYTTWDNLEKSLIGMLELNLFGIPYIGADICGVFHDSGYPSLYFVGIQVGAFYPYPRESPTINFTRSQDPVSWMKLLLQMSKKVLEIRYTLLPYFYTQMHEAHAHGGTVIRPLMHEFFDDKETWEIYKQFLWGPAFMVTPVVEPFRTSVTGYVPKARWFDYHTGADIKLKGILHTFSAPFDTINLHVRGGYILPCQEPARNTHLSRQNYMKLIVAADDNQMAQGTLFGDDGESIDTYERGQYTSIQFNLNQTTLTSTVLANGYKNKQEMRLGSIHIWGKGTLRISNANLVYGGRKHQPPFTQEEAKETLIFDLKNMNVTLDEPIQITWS

[4] = Inhibition of rat intestinal maltase using maltose substrate incubated for 10 mins

IC50 [1] [µM]	IC50 [2] [µM]	IC50 [4] [µM]	SMILES	IC50 [3] [µM]
1350			CC(=O)N([C@H]1C=C[C@@H](O)[C@@H](O)[C@@H]1O)[C@H]1C=C[C@@H](O)[C@@H](O)[C@@H]1O	
> 2000			N[C@H]1[C@H](O)[C@H](O)[C@@H](O)[C@@H](O)[C@@H]1N[C@H]1[C@H](O)[C@H](O)[C@@H](O)[C@@H](O)[C@@H]1O	
	2890	5.8	N[C@H]1C[C@@H](O)[C@H](O)[C@@H](O)[C@H]1O	7.3
	12.5	4.4	N[C@@H]1C[C@@H](O)[C@H](O)[C@@H](O)[C@H]1O	6.8
	404	1.5	C[C@H]1O[C@H](O[C@H]2[C@H](O)[C@@H](O)[C@@H](O[C@H]3[C@H](O)[C@@H](O)C(O)O[C@@H]3CO)O[C@@H]2CO)[C@H](O)[C@@H](O)[C@@H]1N[C@H]1C=C(CO)[C@@H](O)[C@H](O)[C@H]1O (some centres undefined) [ACARBOSE]	
370			CC(=O)N([C@H]1[C@H](O)[C@H](O)[C@@H](O)[C@@H](O)[C@@H]1O)[C@H]1[C@H](O)[C@H](O)[C@@H](O)[C@@H](O)[C@@H]1O	
> 2000			O[C@@H]1[C@@H](O)[C@@H](O)[C@H](N[C@H]2[C@H](O)[C@H](O)[C@@H](O)[C@@H](O)[C@@H]2O)[C@@H](O)[C@@H]1O	

SMILES	IC50 [1] [µM]	IC50 [2] [µM]	IC50 [4] [µM]	IC50 [3] [µM]
OC1CC(N[C@H]2C[C@@H](O)[C@H](O)[C@@H](O)[C@H]2O)[C@@H](O)[C@@H](O)[C@@H]1O (single isomer, unassigned)		32.3	3.1	3.7
O[C@@H]1[C@@H](O)[C@H](O)C[C@H](N[C@H]2C[C@H](O)[C@@H](O)[C@H](O)[C@@H]2O)[C@@H]1O		40.1	3.6	4
O[C@H]1[C@H](O)[C@@H](N[C@H]2C=C[C@@H](O)[C@@H](O)[C@@H]2O)C=C[C@H]1O	1400			
